In ChEMBL document CHEMBL1772964, “Structural requirements of flavonoids for the adipogenesis of 3T3-L1 cells” (Bioorg Med Chem, 2011):

Key:
3T3-L1 [1] = test: Induction of adipogenesis in mouse 3T3L1 cells assessed as increase in triglyceride level at 1 uM on day 8 relative to control; type: functional
3T3-L1 [2] = test: Induction of adipogenesis in mouse 3T3L1 cells assessed as increase in triglyceride level at 3 uM on day 8 relative to control; type: functional
3T3-L1 [3] = test: Induction of adipogenesis in mouse 3T3L1 cells assessed as increase in triglyceride level at 10 uM on day 8 relative to control; type: functional
3T3-L1 [4] = test: Cytotoxicity in mouse 3T3L1 cells assessed as reduction in triglyceride accumulation at 30 uM; type: cell-based; conditions: 3t3-l1, 30 µM
3T3-L1 [5] = test: Induction of adipogenesis in mouse 3T3L1 cells assessed as increase in triglyceride level at 30 uM on day 8 relative to control; type: functional
3T3-L1 [6] = test: Induction of adipogenesis in mouse 3T3L1 cells assessed as increase in triglyceride level at 0.3 uM on day 8 relative to control; type: functional
3T3-L1 [7] = test: Induction of adiponectin protein secretion in mouse 3T3L1 cells at 3 uM on day 8 by ELISA relative to control; type: functional

Structure (SMILES)	Activity (3T3-L1 [1]) [%]	Activity (3T3-L1 [2]) [%]	Activity (3T3-L1 [3]) [%]	Activity (3T3-L1 [4])	Activity (3T3-L1 [5]) [%]	Activity (3T3-L1 [6]) [%]	Activity (3T3-L1 [7]) [%]
O=C(/C=C/c1ccc(O)c(O)c1)c1ccc(O)cc1O [BUTEIN]	14.8	17.5	-7.3	Toxic	-80.8		
O=c1c(O)c(-c2ccccc2)oc2ccccc12 [FLAVONOL]	-12.6	-10	-17.6	Toxic	-31.6		
O=c1cc(-c2ccc(O)c(O)c2)oc2cc(O)cc(O)c12 [LUTEOLIN]	3.9	-6.4	-14.2	Toxic	-41.3		
O=c1cc(-c2ccccc2)oc2cc(O)ccc12 [7-HYDROXYFLAVONE]	12.2	13.7	17.1		5.3		
Oc1cc(O)c2c(c1)O[C@H](c1ccc(O)c(O)c1)[C@H](O)C2 [(-)-EPICATECHIN]	3.7	6.1	-7.2		-0.6		
COc1cc(O)c2c(=O)c(O)c(-c3ccc(O)c(O)c3)oc2c1 [RHAMNETIN]	19	1.9	2.4		-21.4	15.5	
COc1cc(O)c2c(=O)c(O)c(-c3ccc(OC)c(O)c3)oc2c1 [OMBUINE]	-2.1	5.9	4.6		24.7		
COc1cc(OC)c2c(=O)cc(-c3ccc(OC)c(OC)c3)oc2c1 [TETRAMETHYLLUTEOLIN]	2.6	3.1	7.4		-15.3		
O=c1cc(-c2ccccc2)oc2ccccc12 [FLAVONE]	-2.6	-6.8	-5.2		-10.9		
COc1cc(OC)c2c(=O)c(OC)c(-c3ccccc3)oc2c1	9	10.4	13.2		6.6		
O=c1cc(-c2ccc(O)c(O)c2)oc2cc(O)ccc12	4.5	9	14.8		-1.7		
COc1ccc2c(c1)OC(c1ccc(O)cc1)CC2=O (stereo not given)	-1.2	2.2	2.6		13.5		
O=c1c(O)c(-c2cc(O)c(O)c(O)c2)oc2cc(O)cc(O)c12 [MYRICETIN]	4.3	2.7	-0.7		5.6		
COc1ccc(-c2cc(=O)c3c(OC)c(OC)c(OC)c(OC)c3o2)cc1OC [NOBILETIN]	15.3	12.6	10.7		-6.7	14.1	
Oc1cc(O)c2c(c1)O[C@H](c1cc(O)c(O)c(O)c1)[C@H](O)C2 [EPIGALLOCATECHIN]	-9.5	-3.8	-10.2		-19.5		
COc1cc(O)c2c(=O)cc(-c3ccccc3)oc2c1 [TECHTOCHRYSIN]	7.4	10.7	10.4		17.5		
COc1cc(OC)c2c(=O)cc(-c3ccccc3)oc2c1 [CHRYSIN DIMETHYL ETHER]	7.5	3.4	6.3	Toxic	-88.1		
O=C1C[C@@H](c2ccc(O)c(O)c2)Oc2cc(O)cc(O)c21 [ERIODICTYOL]	1.6	-5	-10.3		-10.3		
O=c1cc(-c2ccc(O)c(O)c2)oc2ccccc12	5.9	13.8	9.8		-21		
COc1cc(O)c2c(=O)c(OC)c(-c3ccc(OC)c(O)c3)oc2c1 [AYANIN]	2.6	16.3	18.5		0.4		
O=c1cc(-c2ccc(O)cc2)oc2cc(O)ccc12	-8.1	-3.9	-1.5		-5.7		

Structure (SMILES)	Activity (3T3-L1 [1]) [%]	Activity (3T3-L1 [2]) [%]	Activity (3T3-L1 [3]) [%]	Activity (3T3-L1 [4])	Activity (3T3-L1 [5]) [%]	Activity (3T3-L1 [6]) [%]	Activity (3T3-L1 [7]) [%]
O=c1c(O[C@@H]2O[C@H](CO)[C@@H](O)[C@H](O)[C@H]2O)c(-c2ccc(O)c(O)c2)oc2cc(O)cc(O)c12 [ISOQUERCETIN]	-2.2	0.1	-0.2		-2.4		
COc1ccc(-c2cc(=O)c3c(O)cc(OC)cc3o2)cc1	19	12.2	5.8		6.8	7.7	
COc1ccc(-c2cc(=O)c3c(OC)cc(OC)cc3o2)cc1 [TRIMETHYLAPIGENIN]	16.7	14.1	-17.2	Toxic	-83	5.6	
COc1ccc(-c2coc3cc(O)cc(O)c3c2=O)cc1 [BIOCHANIN]	2.6	6.1	1.2		-16.5		
COc1ccc(-c2cc(=O)c3ccc(OC)cc3o2)cc1 [4,7-DIMETHOXYFLAVONE]	1.2	3.4	4.3		6.3		
O=c1cc(-c2ccc(O)cc2)oc2cc(O)cc(O)c12 [APIGENIN]	4.5	4.9	7		-7.7		
O=c1c(O)c(-c2ccc(O)c(O)c2)oc2cc(O)cc(O)c12 [QUERCETIN]	7	5.8	3		3.9		
COc1c(O)cc(O)c2c(=O)cc(-c3ccccc3)oc12 [WOGONIN]	7.8	9.6	19.2		16.6		
O=c1c(-c2ccc(O)cc2)coc2cc(O)cc(O)c12 [GENISTEIN]	-4.3	-4.3	-17.6		-19.2		
COc1cc(O)c2c(=O)c(OC)c(-c3ccc(OC)c(OC)c3)oc2c1 [RETUSIN]	3.8	11.2	21		3.8		
COc1cc(O)c2c(=O)c(OC)c(-c3ccccc3)oc2c1	13.3	13.7	14.2		17.7		
Cc1c(C)c2c(c(C)c1O)CCC(C)(COc1ccc(CC3SC(=O)NC3=O)cc1)O2 (stereo not given) [TROGLITAZONE]	35.8	34.6	28.1			31.9	166.4
O=c1c(O)c(-c2ccc(O)c(O)c2)oc2cc(O)ccc12 [FISETIN]	4.1	-2.4	-8.8		-2.7		
O=C(/C=C/c1ccc(O)cc1)c1ccc(O)cc1O [ISOLIQUIRITIGENIN]	2.7	4	-0.7		-33.7		
O=c1c(-c2ccc(O)cc2)coc2cc(O)ccc12 [DAIDZEIN]	2	6.5	8.5		13.4		
O=c1cc(-c2ccccc2)oc2cc(O)c(O)c(O)c12 [BAICALEIN]	-5.2	-7.7	-21.8	Toxic	-37.2		
Oc1cc(O)c2c(c1)O[C@H](c1ccc(O)c(O)c1)[C@@H](O)C2 [CIANIDANOL]	-0.5	6.4	7.9		11.9		
O=c1c(O[C@@H]2O[C@H](CO)[C@@H](O)[C@H](O)[C@H]2O)c(-c2ccc(O)cc2)oc2cc(O)cc(O)c12 [ASTRAGALIN]	2.1	4.7	8.8		10.2		
O=c1c(O)c(-c2ccc(O)c(O)c2)oc2c(O)c(O)cc(O)c12 [GOSSYPETIN]	17.5	-2.9	-6.7		-9.5		
O=C1CC(c2ccccc2)Oc2ccccc21 (stereo not given) [FLAVANONE]	-1.9	5.1	2.5		1		
